Drawing on PubChem BioAssay (NCI), this text covers TGI and GI50 for 14 compounds.

Holding throughout (experiment): DTP human tumour cell line panel, 48 h
Experiment [1] has as its system SF-268 CNS.
For experiment [2], the system named is UACC-257 melanoma.
The test system of experiment [3] is NCI-H522 lung.
Experiment [4] relates to IGROV1 ovarian.
Experiment [5] deals with SW-620 colon.
For experiment [6], the system named is DMS 273 small cell lung.
For experiment [7], the system named is NCI-H23 lung.
For experiment [8], the system named is DLD-1 colon.
For experiment [9], the system named is T-47D breast.
Experiment [10] deals with NCI-H460 lung.

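Results reflect a 48-hour exposure of cells in 96-well plates to compound at five concentrations. GI50 is the concentration that inhibits growth by half. TGI: concentration producing complete growth inhibition.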

For orientation: TGI means the concentration at which net growth stops. A low value points to greater sensitivity of the cells. For the compound `Nc1c(-c2nc3ccccc3[nH]2)sc(=S)n1-c1ccc(Cl)cc1`, the total growth inhibition concentration (TGI) is 54.9 µM in [1]; 65.6 µM in experiment [2]; 58.1 µM in experiment [3]; 73.2 µM in [4]; more than 100 µM in experiment [5]; 39.8 µM in experiment [6]. The concentration for total growth inhibition (TGI) in experiment [7] is 81.8 µM; in experiment [8] it was more than 100 µM.

By GI50 is commonly meant the concentration that inhibits growth by half. In the case of `COc1ccc2c(c1)CC[C@@H]1[C@@H]2CC[C@]2(C)C=C(/C=C/C(=O)c3ccccc3)C[C@@H]12`, the GI50 in [9] is 12 µM; in [10], 17.2 µM; in [1], 18.2 µM; in experiment [2], 16.2 µM; in experiment [3] it was 16 µM; in [4], 13.3 µM. The GI50 in [5] and in [7] was 15.4 µM in each case. For the same compound, the TGI in [9] worked out at 30.1 µM; in experiment [10] it was 35.4 µM; in [1], 36.6 µM; in [2], 34.6 µM; in [3], 32.7 µM; in experiment [4], 27.4 µM. In addition, the TGI was 30.2 µM in experiment [5] and 30.8 µM in experiment [7].

As to `COc1cc([C@@H]2c3cc4c(cc3C(OC3O[C@@H]5COC(C)O[C@H]5[C@H](O)[C@H]3O)C3COC(=O)[C@@H]32)OCO4)cc(OC)c1O` (stereo not given in full), the concentration for 50% growth inhibition (GI50) is 0.331 µM in experiment [9]; 0.116 µM in experiment [10]; 1.22 µM in experiment [1]; 2.12 µM in [2]; 0.65 µM in experiment [3]; 2.95 µM in experiment [4]. In addition, the GI50 is 0.67 µM in experiment [5] and 0.652 µM in experiment [7]. For the same compound, the total growth inhibition concentration (TGI) in [9] is more than 33.1 µM; in experiment [10] it was 6.88 µM; in experiment [1] it was 15.4 µM; in experiment [2], more than 50 µM; in [3] it was 4.91 µM; in experiment [4], more than 50 µM. Also, the values for the concentration for total growth inhibition (TGI) in experiment [5] and in experiment [7] were more than 27.2 µM and 6.88 µM, respectively.

Take `Cc1sc2ncn(Cc3ccc(Cl)c(Cl)c3)c(=O)c2c1C`: the GI50 in [9] was 24.8 µM; in experiment [10], 51.5 µM; in experiment [1], 25.5 µM; in experiment [2], 78.8 µM; in experiment [3], 13.1 µM; in experiment [4], 9.28 µM. Also, the GI50 in [5] is 59.8 µM; in [7], 32.5 µM. Further, the TGI was more than 100 µM in experiment [9]; more than 100 µM in experiment [10]; more than 100 µM in experiment [1]; more than 100 µM in experiment [2]; 73.9 µM in experiment [3]; 42.8 µM in experiment [4]. The concentration for total growth inhibition (TGI) in experiment [5] and in experiment [7] was more than 100 µM throughout.

Turning to `COC(=O)[C@]12CC[C@@H](C)[C@H](C)[C@@H]1C1=CC[C@@H]3[C@@]4(C)CC(=O)[C@H](OC(=O)c5ccco5)[C@@]5(C)COC(=C45)C[C@@]3(C)[C@]1(C)CC2`, the GI50 in experiment [9] was 0.667 µM; in experiment [10], 0.568 µM; in experiment [1], 4.86 µM; in experiment [2], 0.352 µM; in experiment [3], 3.1 µM; in [4], 3.71 µM. Also, the GI50 was 0.902 µM in experiment [5] and 0.936 µM in experiment [7]. For the same compound, the TGI in experiment [9] was more than 100 µM; in [10], more than 100 µM; in experiment [1], more than 100 µM; in experiment [2], 2.93 µM; in experiment [3] it was more than 100 µM; in [4] it was more than 100 µM. Besides, the TGI in experiment [5] and in experiment [7] was more than 100 µM throughout.

With `CC(=O)N1CCN(CCOc2ccc(C3CCN(C4=Nn5c(nnc5C(F)(F)F)CC4)CC3)cc2)CC1`, the GI50 in experiment [9] was 5.21 µM; in experiment [10], 30.9 µM; in experiment [1], 77.9 µM; in [2], 26 µM; in experiment [3] it was 5 µM; in experiment [4] it was 17.4 µM. Further, the GI50 in experiment [5] is more than 100 µM; in [7], 11.4 µM. Also, the TGI in experiment [9], in experiment [10], in experiment [1], in [2], in experiment [3] and in [4] was more than 100 µM in each case. Moreover, the TGI in experiment [5] and in experiment [7] was more than 100 µM each time.

Take `CC1(C)[C@@H](OC(N)=O)C=C[C@]2(C=O)[C@H]3CC[C@]4(C)[C@@H](c5ccc(=O)oc5)[C@@H](Cl)C[C@]4(O)C3=CC[C@@H]12`: the GI50 is 0.00635 µM in experiment [9]; less than 0.0025 µM in [10]; 0.00301 µM in [1]; 0.00565 µM in [2]; less than 0.0025 µM in [3]; 0.00761 µM in [4]. Further, the results for the concentration for 50% growth inhibition (GI50) in experiment [5] and in [7] were 0.00561 µM and 0.00298 µM, respectively. The total growth inhibition concentration (TGI) in experiment [9] came to 0.0175 µM; in [10], 0.0048 µM; in experiment [1], 0.00621 µM; in experiment [2], 0.0141 µM; in experiment [3], 0.00573 µM; in [4], 0.0244 µM. In addition, the TGI in [5] came out at 0.013 µM; in experiment [7], 0.0102 µM.

Take `OC(COc1cccc2ccccc12)CN1CCN(c2ccccc2Cl)CC1` (stereo not given): the GI50 was 13.9 µM in [9]; 12.8 µM in experiment [10]; 13.9 µM in [1]; 16.5 µM in [2]; 10.6 µM in [3]; 10 µM in [4]. Further, the GI50 in experiment [5] is 10.9 µM; in experiment [7], 13.3 µM. For the same compound, the TGI in experiment [9] is 29.6 µM; in experiment [10], 29 µM; in experiment [1] it was 29.9 µM; in experiment [2] it was 31 µM; in experiment [3], 25.1 µM; in experiment [4] it was 25.5 µM. The TGI in experiment [5] was 27.9 µM; in experiment [7] it was 29.8 µM.

Consider `O=C(Nc1cccc(C(F)(F)F)c1)c1cc(Br)cc(Br)c1O`, for which the total growth inhibition concentration (TGI) was 9.69 µM in experiment [9]; more than 10 µM in experiment [10]; more than 10 µM in experiment [1]; 6.93 µM in [2]; 9.82 µM in [3]; more than 10 µM in experiment [4]. Also, the total growth inhibition concentration (TGI) in experiment [5] is more than 10 µM; in experiment [7], 5.27 µM.

On to `COc1cccc(C2=C(c3cn(C)c4cccc(OC)c34)C(=O)NC2=O)c1`, for which the GI50 in [9] was 13.7 µM; in experiment [10], 8.75 µM; in [1], 16.4 µM; in [2] it was more than 15.9 µM; in [3], 1.67 µM; in experiment [4] it was 7.49 µM. For the same compound, the GI50 in experiment [5] is 6.89 µM; in [7], 19.6 µM. Besides, the TGI in [9] was more than 25 µM; in experiment [10], more than 25 µM; in [1], more than 25 µM; in experiment [2] it was more than 25 µM; in [3] it was more than 19.7 µM; in [4], more than 25 µM. Also, the TGI in experiment [5] and in [7] was more than 25 µM in each case.

As to `O=C(NCCCCOCC#Cc1ccccc1C#CCS(=O)(=O)c1ccccc1)c1cc2ccccc2[nH]1`, the GI50 was 12.3 µM in [9]; 14.4 µM in experiment [10]; 12.4 µM in experiment [1]; 22.4 µM in [2]; 7.79 µM in [3]; 2.68 µM in [4]. Further, the values for the GI50 in [5] and in experiment [7] were 11.5 µM and 7.25 µM, respectively. In addition, the TGI is more than 37.5 µM in [9]; more than 50 µM in experiment [10]; more than 43.1 µM in experiment [1]; more than 50 µM in experiment [2]; 16.4 µM in experiment [3]; 7.03 µM in experiment [4]. Also, the TGI in [5] was more than 45.5 µM; in experiment [7], 16 µM.

As to `Cc1ncc([N+](=O)[O-])n1CCNC(=O)CCCCCn1ccnc1[N+](=O)[O-]`, the total growth inhibition concentration (TGI) in experiment [9], in [10], in [1], in [2], in experiment [3] and in [4] was more than 100 µM each time. In addition, the TGI in experiment [5] and in experiment [7] was more than 100 µM each time.

As to `O=[As]c1ccc(C(=O)c2ccc(Oc3ccccc3)cc2)cc1` (stereo not given), the GI50 in experiment [9] is 0.0316 µM; in experiment [10] it was 0.0439 µM; in experiment [1], 0.0344 µM; in [2], 0.0431 µM; in experiment [3], 0.0219 µM; in experiment [4], 0.044 µM. The results for the 50% growth inhibitory concentration (GI50) in experiment [5] and in [7] were 0.0248 µM and 0.0751 µM, respectively. Also, the TGI in experiment [9] was determined as 0.156 µM; in [10] it was 0.183 µM; in [1], 0.129 µM; in [2], 0.171 µM; in [3], 0.0865 µM; in [4], 0.219 µM. In addition, the TGI in experiment [5] came out at 0.111 µM; in experiment [7], 0.242 µM.

As for `O=C(CC(=O)c1ccccc1)c1ccccc1`, the GI50 in [9] was 14.9 µM; in experiment [10] it was 7.94 µM; in experiment [1], 10.9 µM; in experiment [2], 23.6 µM; in [3], 29.3 µM; in experiment [4], 19.9 µM. In addition, the results for the GI50 in experiment [5] and in [7] were 13.2 µM and 13.6 µM, respectively. Further, the concentration for total growth inhibition (TGI) in experiment [9] is 46.1 µM; in [10], 40 µM; in experiment [1], 57.7 µM; in [2] it was 84.5 µM; in [3], more than 100 µM; in experiment [4] it was more than 100 µM. In addition, the results for the TGI in [5] and in experiment [7] were more than 100 µM and 43.4 µM, respectively.
